Experimental data from patent US20220127298A1, “THERMOSPOROTHRIX HAZAKENSIS-DERIVED ANTIBACTERIALLY ACTIVE SUBSTANCE” (KENNAN EISEI KOGYO CO., LTD., priority 2019, published 2022).

Assays:
Format in all cases: cell-based
[1] = system: Geobacillus stearothermophilus ATCC 7953; experiment: Antibacterial spectrum test, paper disk assay; conditions: 50 μL of 1000 γ solution in methanol, LB agar, 60° C., 18 hours
Description: (§1) The antibacterial activity of HK-1 was assayed using a paper disk against the following bacterial bodies. A piece of ice was taken out of a glycerol stock of G. stearothermophilus stored at -80° C. and […] inoculated on the LB agar culture medium (see Example 1) with a toothpick. This was incubated at 60° C. for 18 hours. After the incubation, 1⁄2 platinum loop of the culture was harvested and suspended in 500 μL of sterile water. The bacterial suspension was diluted 10-fold with sterile water. Onto a LB agar culture medium, 100 μL of the diluted suspension was dropped and spread until it was dried up. A piece of paper disk was placed on a filter paper, onto which 50 μL of a HK-1 solution adjusted to 1000 γ with methanol was dropped and dried. Then the disk was placed on the agar culture medium coated with the bacterial body. After incubation at 60° C. for 18 hours, the diameter of the inhibition ring was measured.

[2] = system: Bacillus subtilis NBRC 3134^T; experiment: Antibacterial spectrum test, paper disk assay; conditions: 50 μL of 1000 γ solution in methanol, LB agar, 37° C., 18 hours
Description: as §1, with “measured. Assays were performed in the same manner as in 1 above, except that the incubation temperature was changed to 37° C.” for “measured.”

[3] = system: Escherichia coli NBRC 102203^T; experiment: Antibacterial spectrum test, paper disk assay; conditions: 50 μL of 1000 γ solution in methanol, LB agar, 37° C., 18 hours
Description: as §1, with “measured. Assays were performed in the same manner as in 1 above, except that the incubation temperature was changed to 37° C.” for “measured.”

[4] = system: Streptomyces sp. AGRN-8; experiment: Antibacterial spectrum test, paper disk assay; conditions: 50 μL of 1000 γ solution in methanol, BM medium, 45° C., 2 days
Description: (§2) The antibacterial activity of HK-1 was assayed using a paper disk against the following bacterial bodies.
(§3) A piece of ice out of a glycerol stock of S. griseus stored at −80° C. was planarly inoculated on the YMPD agar culture medium with a toothpick. This was incubated at 28° C. for 5 days. After the incubation, a small amount of spore was scraped off with a swab, and planarly inoculated on the YMPD culture medium. A piece of paper disk was placed on a filter paper, onto which 50 μL of a HK-1 solution adjusted to 1000 γ with methanol was dropped and dried. Then the disk was placed on the agar culture medium coated with the bacterial body. After incubation at 28° C. for 4 days, the diameter of the inhibition ring was measured.
(§4) Assays were performed in the same manner as in 3 above, except that the incubation conditions were changed to BM culture medium, 45° C., and 2-day period.

[5] = system: Streptomyces sp. AGRN-9; experiment: Antibacterial spectrum test, paper disk assay; conditions: 50 μL of 1000 γ solution in methanol, BM medium, 45° C., 2 days
Description: as §2, §3, §4

[6] = system: Geobacillus stearothermophilus ATCC 7953; experiment: Antibacterial activity test in changing pH, paper disk assay; conditions: 1000 γ in methanol, 50 μL on paper disk, 50° C., 18 hours
Description: Into a 50-mL Falcon tube, 20 mg of HK-1 was weighed out using an electric balance, and therein 20 mL of methanol (1000 γ) was added followed by gentle stirring. Each 3.3 mL was aliquoted to totally two 15-mL Falcon tubes. To one of them 20 μL of 1 N sodium hydroxide was added followed by gentle stirring. The pH was tested with a pH test paper. Ten (10) μL of each sample was subjected to HPLC. The HPLC analysis conditions are as follows. The stability of a compound is regarded as one of the important information for evaluating a substance. This is because, even if the external environment changes, insofar as the compound itself is stable, it can be applied in various situations, and the information leads to acquisition of biological knowledges. Therefore, the stability of the activity was examined by measuring antibacterial activities with respect to G. stearothermophilus, and B. subtilis using the solution prepared in the above “1. Antibacterial spectrum test”. (1) Each 10 mL of the (autoclave treated) LB culture medium (see Example 1) was dispensed into two long test tubes. (2) Into each long test tube, 50 μL of a commercially available G. stearothermophilus spore suspension was seeded. […] The culture medium was taken out from the incubator, and the diameter of the inhibition ring was measured with calipers (Kanon hardened stainless 150 mm).

[7] = system: Bacillus subtilis NBRC 3134^T; experiment: Heat resistance test A, antibacterial activity as index; conditions: 1000 γ solution, pH adjusted to 9, 98° C. for 5 min; FIG. 4-1
Description: (§5) Examples of a typical test for measuring the stability of a compound include pH stability test, as well as heat resistance test, and storage test. This information is also regarded as important in evaluating the compound as described above. Using the sample of HK-1 prepared in the above “3. Antibacterial activity test in changing pH”, experiments were carried out to examine whether the compound is stable or not using G. stearothermophilus and B. subtilis guided by the antibacterial activity as the index.
(§6) Three hundred (300) μL of the 1000 γ HK-1 solution (pH 9, and pH not adjusted) prepared in the above “3. Antibacterial activity test in changing pH” was dispensed into a 1 mL microtube. The opening of the tube was closed hermetically with parafilm and heated in the bath at 98° C. for 5 min. An assay was performed using the culture medium for assaying antibacterial activity prepared in “3. Antibacterial activity test in changing pH” above.

[8] = system: Geobacillus stearothermophilus ATCC 7953; experiment: as above; conditions: 1000 γ solution, pH adjusted to 9, 98° C. for 5 min; FIG. 4-1
Description: as §5, §6

- antibacterial effect after heating at high temperature [7]: the antibacterial effect was not lost
- antibacterial effect after heating at high temperature [8]: the antibacterial effect was not lost
Structure (SMILES): COc1cc(OOc2cc(OC)c3c(c2-c2c(O)c(Cl)c(C)c4c2C(O)c2c(Cl)c(O)cc(O)c2C4=O)C(OC2OC(C)C(O)C2O)c2c(Cl)c(OC)c(Cl)c(C)c2C3=O)c(-c2c(O)c(Cl)c(C)c3c2C(O)c2c(Cl)c(O)cc(O)c2C3=O)c2c1C(=O)c1c(C)c(Cl)c(OC)c(Cl)c1C2OC1OC(C)C(O)C1O (stereo not drawn) [HK-1]
- inhibition ring diameter [1]: 34.0 mm
- inhibition ring diameter [2]: 32.0 mm
- inhibition ring diameter [3]: 14.0 mm
- inhibition ring diameter [4]: 16.0 mm
- inhibition ring diameter [5]: 19.0 mm
- inhibition ring diameter ([6]; solution with pH adjusted to 9): 22.6 mm
- inhibition ring diameter ([6]; solution with pH not adjusted): 21.9 mm
